Measurements taken from PMC6784244 (Toxins, 2019).
Converted amounts (≈) assume the structure as drawn. “And” between values parts separate entries of the source, which are not always exact repeats. Equal entries are not always repeated. Where two headings read alike, the source gives them in different places.

Key:
human erythrocytes = details: pH 7.4
[1] = tested on: Candida albicans (DSMZ 10697); details: DSMZ 10697, 24 h, pH 7
[2] = design: species or system B. subtilis; key: -- indicates the absence of interaction; details: lipid monolayer on PBS pH 7.4, peptide 1 µM, extrapolated to delta pressure 0; -- = absence of interaction
Description: (§1) Peptide–lipid interaction was evaluated using reconstituted lipid monolayer at the air–water interface as previously described. Pure prokaryotic and eukaryotic lipids used were: POPC (1-palmitoyl-2-oleoyl-glycero-3-phosphocholine), POPE (1-palmitoyl-2-oleoyl-sn-glycero-3-phosphoethanolamine), POPG (1-palmitoyl-2-oleoyl-sn-glycero-3-phospho-(1’-rac-glycerol), and cardiolipin, all from Avanti Polar Lipid (Alabama, USA). LTA (Lipoteichoic acid from B. subtilis) was obtained from Invivogen SAS (Toulouse, France). Pure lipids were reconstituted in chloroform:methanol (2:1, v:v) at 1 mg/mL and stored at −20 °C under nitrogen. The interaction and insertion of the ENN and BEA into lipids were evaluated through the measurement of their critical pressure of insertion as previously described. Briefly, lipids were spread using a 50 µL Hamilton’s syringe at the surface of 800 µL of sterile PBS creating a lipid monolayer at the air–water interface. Lipids were added until the surface pressure reached the desired value. After 5–10 min of incubation allowing evaporation of the solvent and stabilization of the initial surface pressure, 8 µL of ENN or BEA diluted in sterile PBS at 100 µM were injected into the 800 µL sub-phase of PBS under the lipid monolayer (pH 7.4, volume 800 µL) using a 10 µL Hamilton syringe giving a final concentration of peptides of 1 µM, preliminary experiments having shown that this concentration gave optimal insertion. The variation of the surface pressure caused by peptide injection was then continuously monitored using a fully automated microtensiometer (µTROUGH SX, Kibron Inc., Helsinki, Finland) until reaching equilibrium (maximal surface pressure increase being usually obtained after 15–25 min). The critical pressure of insertion of each peptide was determined by changing the initial pressure of lipid monolayer (from 10 and 30 mN/m) and measuring the variation of pressure caused by the insertion of the peptide. The critical pressure of insertion of each peptide in a particular lipid was determined graphically and calculated as the theoretical value of initial pressure of lipid monolayer not permissive to peptide insertion, i.e., causing a variation of pressure equal to 0 mN/m.

[3] = tested on: Mycobacterium smegmatis (mc2155, ATCC 700084); details: mc2155, 72 h
A. niger (ATCC 9142) = details: ATCC 9142, pH 7
[4] = tested on: Fusarium graminearum (DSMZ 1095); details: DSMZ 1095, pH 7
[5] = tested on: Bacillus subtilis (ATCC 6633)
[6] = tested on: Aspergillus flavus (DSMZ 1959); details: DSMZ 1959, pH 7
[7] = tested on: Vancomycin-resistant Enterococcus faecalis (DSMZ 13591)
[8] = tested on: Staphylococcus aureus (ATCC CRM-6538P)
[9] = tested on: F. oxysporum (DSMZ 62316); details: DSMZ 62316, pH 7
[10] = lipid monolayer at air-water interface on PBS pH 7.4, peptide 1 µM, initial pressure 10-30 mN/m, extrapolated to delta pressure 0
Description: as §1

[11] = tested on: Acinetobacter baumannii (CIP 110431)
[12] = tested on: Stachybotrys chartarum (DSMZ 2144); details: DSMZ 2144, pH 7
[13] = tested on: HEK (human normal epidermal keratinocytes); details: 48 h
[14] = design: key: -- indicates the absence of interaction; details: lipid monolayer on PBS pH 7.4, peptide 1 µM, extrapolated to delta pressure 0; -- = absence of interaction
Description: as §1

C. perfringens [15] = format: cell-based, Clostridium perfringens
[16] = tested on: N87 (human gastric cell line); details: 48 h
[17] = tested on: Penicillium verrucosum (DSMZ 12639); details: DSMZ 12639, pH 7
C. perfringens [18] = format: cell-based, Clostridium perfringens; remark: listed apart in the source
[19] = tested on: Pseudomonas aeruginosa (ATCC CRM-9027)
[20] = tested on: Helicobacter pylori (ATCC 43504)
[21] = tested on: Escherichia coli (ATCC 8739)
C. perfringens [22] = format: cell-based, Clostridium perfringens; remark: listed apart in the source
[23] = tested on: F. verticillioides (DSMZ 62264); details: DSMZ 62264, pH 7
A. ochraceus (DSMZ 824) = details: DSMZ 824, pH 7
[24] = tested on: Clostridium perfringens (ATCC 13124)
[25] = tested on: Nisin-resistant B. subtilis (DSMZ 347)
[26] = tested on: Methicillin-resistant S. aureus strain MRSA USA300
[27] = C. perfringens, 5 x MIC, 4 h, 37 °C, anaerobic, FM4-64FX membrane and DAPI DNA staining, confocal microscope

Q: Which results are given for `CC(C)[C@H]1OC(=O)[C@H](Cc2ccccc2)N(C)C(=O)[C@@H](C(C)C)OC(=O)[C@H](Cc2ccccc2)N(C)C(=O)[C@@H](C(C)C)OC(=O)[C@H](Cc2ccccc2)N(C)C1=O` [BEA, Beauvericin]?
A: HC50 (dose causing 50% hemolysis), Erythrocytes (human erythrocytes): 118.9 ± 15.8 µM; MIC, C. albicans [1]: 6.25 µM (≈ 4.9 µg/mL); critical pressure of insertion, LTA [2]: --; MIC, M. smegmatis [3]: 25 µM (≈ 19.6 µg/mL); MIC, A. niger (A. niger (ATCC 9142)): >100 µM; MIC, F. graminearum [4]: 25 µM (≈ 19.6 µg/mL); MIC, B. subtilis [5]: 6.25 to 12.5 µM; MIC, A. flavus [6]: >100 µM; MIC, E. faecalis [7]: 12.5 µM (≈ 9.8 µg/mL); MIC, S. aureus [8]: 12.5 µM (≈ 9.8 µg/mL); MIC, F. oxysporum [9]: >100 µM; critical pressure of insertion, POPC [10]: 41.65 mN/m; critical pressure of insertion, POPE [10]: 32.46 mN/m; MIC, A. baumannii [11]: >100 µM; MIC, S. chartarum [12]: >100 µM; IC50 [13]: 5.4 ± 0.9 µM; critical pressure of insertion, POPG [14]: --; Known/possible target (C. perfringens [15]): Protein biosynthesis; Observed Morphology (C. perfringens [15]): • No cell elongation • DNA condensed in 1–4 circles per cells; IC50 [16]: 27.5 ± 0.7 µM; MIC, P. verrucosum [17]: >100 µM; percentage of permeabilization at four times the MIC (C. perfringens [18]): 1.8 ± 2.8%; MIC, P. aeruginosa [19]: >100 µM; MIC, H. pylori [20]: >100 µM; MIC, E. coli [21]: >100 µM; membrane depolarization at 100 µM (C. perfringens [22]): 59.1 ± 2.0%; membrane depolarization at four times their MIC (C. perfringens [22]): 63.8 ± 4.8%; membrane depolarization at their MIC (C. perfringens [22]): 38.3 ± 3.3% and 30–40%; MIC, F. verticillioides [23]: >100 µM; MIC, A. ochraceus (A. ochraceus (DSMZ 824)): >100 µM; MIC, C. perfringens [24]: 6.25 µM (≈ 4.9 µg/mL); MIC, B. subtilis NR [25]: 6.25 to 12.5 µM; MIC, S. aureus MRSA [26]: 6.25 to 12.5 µM

Q: Which “Observed Morphology” value (C. perfringens [15]; [27]) does the source give for `CO[C@H]1/C=C/O[C@@]2(C)Oc3c(C)c(O)c4c(O)c(c(/C=N/N5CCN(C)CC5)c(O)c4c3C2=O)NC(=O)/C(C)=C\C=C\[C@H](C)[C@H](O)[C@@H](C)[C@@H](O)[C@@H](C)[C@H](OC(C)=O)[C@@H]1C` [Rifampicin, reference compound] here?
A: The value was “• No cell elongation • DNA condensed in one filament crossing the cells”.

Q: With `CN(C)[C@@H]1C(O)=C(C(N)=O)C(=O)[C@@]2(O)C(O)=C3C(=O)c4c(O)cccc4[C@@](C)(O)[C@H]3C[C@@H]12` [Tetracycline, reference compound] as the molecule, how does the “Observed Morphology” value (C. perfringens [15]; [27]) read?
A: Its value is “• Some cell elongation (1.5–2 times compared to control) • DNA condensed in 1–4 circles per cells”.

Q: With `CO/N=C1\CN(c2nc3c(cc2F)c(=O)c(C(=O)O)cn3C2CC2)CC1CN` (stereo not shown) [Gemifloxacin, reference compound] as the molecule, how does the “Observed Morphology” value (C. perfringens [15]; [27]) read?
A: The value was “• Elongated cells (5–6 times compared to control) • Decondensed DNA • Chain formation”.

Q: Which “Observed Morphology” value (C. perfringens [15]; [27]) does the source give for `CC1(C)S[C@@H]2[C@H](NC(=O)[C@H](N)c3ccc(O)cc3)C(=O)N2[C@H]1C(=O)O` [Amoxicillin, reference compound] here?
A: Its value is “• Elongated cells (5–6 times compared to control) • Normally condensed DNA”.
